In patent US20180282351A1, “Amorphous Ixazomib Citrate” (Mylan Laboratories Ltd, priority 2015, published 2018):

Assay: Stability of Form M2 on storage, polymorph checked by PXRD
Type: physicochemical
Protocol: In one aspect, the present invention provides crystalline ixazomib citrate form M1. The ixazomib citrate forms of the present invention, including form M1, prepared by methods disclosed herein, may be characterized by PXRD. Therefore samples of each ixazomib citrate form (including amorphous, M1, M2, M3, and M4) were analyzed by PXRD on a BRUKER D-8 Discover powder diffractometer equipped with a goniometer of θ/2θ configuration and Lynx Eye detector. The Cu-anode X-ray tube was operated at 40 kV and 30 mA. The experiments were conducted over the 2θ range of 2.0°-50.0°, 0.030° step size, and 0.4 seconds step time.

Which “Long-term physical stability (change in PXRD pattern)” value (1, 3 and 6 months stored at 5±3° C., at 25° C./60% and at 40° C./75% relative humidity (RH)) does the source give for CC(C)C[C@H](NC(=O)CNC(=O)c1cc(Cl)ccc1Cl)B1OC(=O)C(CC(=O)O)(CC(=O)O)O1 [Form M2, 2,2′-{2-[(1R)-1-({[(2,5-dichlorobenzoyl)amino]acetyl}amino)-3-methylbutyl]-5-oxo-1,3,2-dioxaborolane-4,4-diyl}diacetic acid] here?
The value was “does not show any change in PXRD pattern”.

And the “Polymorph by PXRD” value (at 5 ± 3° C., 1 month)?
The value was “Form M2”.

And the “Polymorph by PXRD” value (at 5 ± 3° C., 3 months)?
Its value is “Form M2”.

And the “Polymorph by PXRD” value (at 5 ± 3° C., 6 months)?
The value was “Form M2”.

What about the “Polymorph by PXRD” value (at 5 ± 3° C., Initial) of the same molecule?
Its value is “Form M2”.

And the “Polymorph by PXRD” value (at 25° C./60% RH, 1 month)?
Its value is “Form M2”.

What about the “Polymorph by PXRD” value (at 25° C./60% RH, 3 months) of the same molecule?
Its value is “Form M2”.

What about the “Polymorph by PXRD” value (at 25° C./60% RH, 6 months) of the same molecule?
Its value is “Form M2”.

And the “Polymorph by PXRD” value (at 25° C./60% RH, Initial)?
The value was “Form M2”.

What about the “Polymorph by PXRD” value (at 40° C./75% RH, 1 month) of the same molecule?
The value was “Form M2”.

What about the “Polymorph by PXRD” value (at 40° C./75% RH, 3 months) of the same molecule?
Its value is “Form M2”.

And the “Polymorph by PXRD” value (at 40° C./75% RH, 6 months)?
The value was “Form M2”.

What about the “Polymorph by PXRD” value (at 40° C./75% RH, Initial) of the same molecule?
Its value is “Form M2”.
